Measurements reported in patent publication US20030129629A1, “Methods and compositions for the identification, assessment, prevention, and therapy of human cancers” (Millennium Pharmaceuticals, Inc., priority 2000, published 2003).
Like-named read-outs stand apart in the source and are kept apart here.

Key:
[1] = tested on: 60 cancer cell lines (NCI 60 cancer cell line series); test: NCI-DTP in vitro cancer screen, sulforhodamine B (SRB) growth inhibition, 48 hour exposure; format: cell-based, human
How it was run: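 Potency is given as mean −log{GI50} from dose–response curves, manually binned into Low, Medium or High sensitivity. Sixty NCI-DTP tumour lines were treated 48 h with a duplicate, five-dose, ten-fold dilution series, and growth read by SRB staining of cell mass.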

[2] = tested on: 60 cancer cell lines (NCI 60 cancer cell line series); conditions: cited from earlier work
tumor = conditions: animal models; cited from earlier work

CC(=O)O[C@H]1C(=O)[C@@]2(C)[C@H]([C@H](OC(=O)c3ccccc3)[C@]3(O)C[C@H](OC(=O)[C@H](O)[C@@H](NC(=O)c4ccccc4)c4ccccc4)C(C)=C1C3(C)C)[C@]1(OC(C)=O)CO[C@@H]1C[C@@H]2O [TAXOL, paclitaxel, reference compound]
classification of cell line as Low(1), Medium(2), High(3) sensitivity to compound ([1]; Breast BT-549 CL5013): 2 | classification of cell line as Low(1), Medium(2), High(3) sensitivity to compound ([1]; Breast MCF7/ADRr CL5002): 1 | classification of cell line as Low(1), Medium(2), High(3) sensitivity to compound ([1]; Breast MDA-MB-231 CL5005): 2 | classification of cell line as Low(1), Medium(2), High(3) sensitivity to compound ([1]; Breast MDA-MB-435 CL5011): 3 | classification of cell line as Low(1), Medium(2), High(3) sensitivity to compound ([1]; Breast MDA-N CL5012): 3 | classification of cell line as Low(1), Medium(2), High(3) sensitivity to compound ([1]; CNS SF-268 CL12014): 2 | classification of cell line as Low(1), Medium(2), High(3) sensitivity to compound ([1]; CNS SF-295 CL12015): 2 | classification of cell line as Low(1), Medium(2), High(3) sensitivity to compound ([1]; CNS SF-539 CL12016): 2 | classification of cell line as Low(1), Medium(2), High(3) sensitivity to compound ([1]; CNS SNB-19 CL12002): 2 | classification of cell line as Low(1), Medium(2), High(3) sensitivity to compound ([1]; CNS U251(I) CL12009): 2 | classification of cell line as Low(1), Medium(2), High(3) sensitivity to compound ([1]; Colon HCT-15 CL4015): 1 | classification of cell line as Low(1), Medium(2), High(3) sensitivity to compound ([1]; Colon HCT-116 CL4003): 3 | classification of cell line as Low(1), Medium(2), High(3) sensitivity to compound ([1]; Colon HT29(I) CL4001): 3 | classification of cell line as Low(1), Medium(2), High(3) sensitivity to compound ([1]; Colon KM12 CL4017): 2 | classification of cell line as Low(1), Medium(2), High(3) sensitivity to compound ([1]; Leukemia MOLT-4 CL7006): 2 | classification of cell line as Low(1), Medium(2), High(3) sensitivity to compound ([1]; Leukemia RPMI-8226(I) CL7010): 3 | classification of cell line as Low(1), Medium(2), High(3) sensitivity to compound ([1]; Melanoma M14 CL10014): 2 | sensitivity classification Low(1)/Medium(2)/High(3) ([1]; NSCLC NCI-H23(I) CL1001): 2 | sensitivity classification Low(1)/Medium(2)/High(3) ([1]; NSCLC NCI-H332M CL1017): 2 | sensitivity classification Low(1)/Medium(2)/High(3) ([1]; Ovarian IGROV1 CL6010): 2 | sensitivity classification Low(1)/Medium(2)/High(3) ([1]; Ovarian OVCAR-4 CL6002): 1 | sensitivity classification Low(1)/Medium(2)/High(3) ([1]; Ovarian OVCAR-8 CL6005): 2 | sensitivity classification Low(1)/Medium(2)/High(3) ([1]; Ovarian SK-OV-3 CL6011): 2 | sensitivity classification Low(1)/Medium(2)/High(3) ([1]; Prostate DU-145 CL11003): 2 | sensitivity classification Low(1)/Medium(2)/High(3) ([1]; Prostate PC-3(I) CL11001): 2 | sensitivity classification Low(1)/Medium(2)/High(3) ([1]; Renal 786-0 CL9018): 2 | sensitivity classification Low(1)/Medium(2)/High(3) ([1]; Renal ACHN CL9023): 1 | sensitivity classification Low(1)/Medium(2)/High(3) ([1]; Renal CAKI-1 CL9015): 1 | sensitivity classification Low(1)/Medium(2)/High(3) ([1]; Renal RXF-393 CL9016): 2 | sensitivity classification Low(1)/Medium(2)/High(3) ([1]; Renal SN12C CL9008): 2 | sensitivity classification Low(1)/Medium(2)/High(3) ([1]; Renal UO-31 CL9004): 1 | −Log (GI50) ([2]; Breast MCF7/ADRr CL5002): 5.5 | −Log (GI50) ([2]; Colon COLO-250 CL4010): 8.0 | −Log (GI50) ([2]; Melanoma SK-MEL-5 CL10007): 6.3 | −Log (GI50) ([2]; Melanoma UACC-62 CL10020): 8.1 | −Log (GI50) ([2]; Melanoma UACC-257 CL10021): 7.1 | −Log (GI50) ([2]; NSCLC A549/ATCC CL1004): 8.0 | −Log (GI50) ([2]; NSCLC EKVX CL1008): 4.8 | −Log (GI50) ([2]; NSCLC HOP-62 CL1026): 7.4 | −Log (GI50) ([2]; NSCLC HOP-92 CL1029): 5.7 | −Log (GI50) ([2]; Ovarian OVCAR-5 CL6003): 6.8

COc1cccc2c1C(=O)c1c(O)c3c(c(O)c1C2=O)C[C@@](O)(C(=O)CO)C[C@@H]3O[C@H]1C[C@H](N)[C@H](O)[C@H](C)O1 [Adriamycin]
classification of cell line as Low(1), Medium(2), High(3) sensitivity to compound ([1]; Breast BT-549 CL5013): 2 | classification of cell line as Low(1), Medium(2), High(3) sensitivity to compound ([1]; Breast HS-578T CL5006): 2 | classification of cell line as Low(1), Medium(2), High(3) sensitivity to compound ([1]; Breast MCF7(I) CL5001): 3 | classification of cell line as Low(1), Medium(2), High(3) sensitivity to compound ([1]; Breast MCF7/ADRr CL5002): 1 | classification of cell line as Low(1), Medium(2), High(3) sensitivity to compound ([1]; Breast MDA-MB-231 CL5005): 2 | classification of cell line as Low(1), Medium(2), High(3) sensitivity to compound ([1]; Breast MDA-MB-435 CL5011): 2 | classification of cell line as Low(1), Medium(2), High(3) sensitivity to compound ([1]; Breast MDA-N CL5012): 2 | classification of cell line as Low(1), Medium(2), High(3) sensitivity to compound ([1]; Breast T-47D CL5014): 2 | classification of cell line as Low(1), Medium(2), High(3) sensitivity to compound ([1]; CNS SF-268 CL12014): 2 | classification of cell line as Low(1), Medium(2), High(3) sensitivity to compound ([1]; CNS SF-295 CL12015): 2 | classification of cell line as Low(1), Medium(2), High(3) sensitivity to compound ([1]; CNS SF-539 CL12016): 2 | classification of cell line as Low(1), Medium(2), High(3) sensitivity to compound ([1]; CNS SNB-19 CL12002): 2 | classification of cell line as Low(1), Medium(2), High(3) sensitivity to compound ([1]; CNS SNB-75(I) CL12005): 2 | classification of cell line as Low(1), Medium(2), High(3) sensitivity to compound ([1]; CNS U251(I) CL12009): 2 | classification of cell line as Low(1), Medium(2), High(3) sensitivity to compound ([1]; Colon COLO-250 CL4010): 2 | classification of cell line as Low(1), Medium(2), High(3) sensitivity to compound ([1]; Colon HCC-2998 CL4002): 2 | classification of cell line as Low(1), Medium(2), High(3) sensitivity to compound ([1]; Colon HCT-15 CL4015): 1 | classification of cell line as Low(1), Medium(2), High(3) sensitivity to compound ([1]; Colon HCT-116 CL4003): 2 | classification of cell line as Low(1), Medium(2), High(3) sensitivity to compound ([1]; Colon HT29(I) CL4001): 2 | classification of cell line as Low(1), Medium(2), High(3) sensitivity to compound ([1]; Colon KM12 CL4017): 2 | classification of cell line as Low(1), Medium(2), High(3) sensitivity to compound ([1]; Colon SW-620 CL4009): 2 | classification of cell line as Low(1), Medium(2), High(3) sensitivity to compound ([1]; Leukemia CCRF-CEM(I) CL7003): 3 | classification of cell line as Low(1), Medium(2), High(3) sensitivity to compound ([1]; Leukemia HL-60(I) CL7008): 2 | classification of cell line as Low(1), Medium(2), High(3) sensitivity to compound ([1]; Leukemia K562(I) CL7005): 2 | classification of cell line as Low(1), Medium(2), High(3) sensitivity to compound ([1]; Leukemia MOLT-4 CL7006): 3 | classification of cell line as Low(1), Medium(2), High(3) sensitivity to compound ([1]; Leukemia RPMI-8226(I) CL7010): 2 | classification of cell line as Low(1), Medium(2), High(3) sensitivity to compound ([1]; Leukemia SR CL7019): 3 | classification of cell line as Low(1), Medium(2), High(3) sensitivity to compound ([1]; Melanoma LOX IMVI CL10001): 2 | classification of cell line as Low(1), Medium(2), High(3) sensitivity to compound ([1]; Melanoma M14 CL10014): 2 | classification of cell line as Low(1), Medium(2), High(3) sensitivity to compound ([1]; Melanoma MALME-3M CL10002): 2 | classification of cell line as Low(1), Medium(2), High(3) sensitivity to compound ([1]; Melanoma SK-MEL-2 CL10005): 2 | classification of cell line as Low(1), Medium(2), High(3) sensitivity to compound ([1]; Melanoma SK-MEL-28 CL10008): 2 | sensitivity classification Low(1)/Medium(2)/High(3) ([1]; NSCLC NCI-H23(I) CL1001): 2 | sensitivity classification Low(1)/Medium(2)/High(3) ([1]; NSCLC NCI-H332M CL1017): 1 | sensitivity classification Low(1)/Medium(2)/High(3) ([1]; NSCLC NCI-H460 CL1021): 3 | sensitivity classification Low(1)/Medium(2)/High(3) ([1]; NSCLC NCI-H522 CL1003): 2 | sensitivity classification Low(1)/Medium(2)/High(3) ([1]; Ovarian IGROV1 CL6010): 2 | sensitivity classification Low(1)/Medium(2)/High(3) ([1]; Ovarian OVCAR-3 CL6001): 2 | sensitivity classification Low(1)/Medium(2)/High(3) ([1]; Ovarian OVCAR-4 CL6002): 1 | sensitivity classification Low(1)/Medium(2)/High(3) ([1]; Ovarian OVCAR-5 CL6003): 1 | sensitivity classification Low(1)/Medium(2)/High(3) ([1]; Ovarian OVCAR-8 CL6005): 2 | sensitivity classification Low(1)/Medium(2)/High(3) ([1]; Ovarian SK-OV-3 CL6011): 2 | sensitivity classification Low(1)/Medium(2)/High(3) ([1]; Prostate DU-145 CL11003): 2 | sensitivity classification Low(1)/Medium(2)/High(3) ([1]; Prostate PC-3(I) CL11001): 2 | sensitivity classification Low(1)/Medium(2)/High(3) ([1]; Renal 786-0 CL9018): 2 | sensitivity classification Low(1)/Medium(2)/High(3) ([1]; Renal A498 CL9013): 2 | sensitivity classification Low(1)/Medium(2)/High(3) ([1]; Renal ACHN CL9023): 2 | sensitivity classification Low(1)/Medium(2)/High(3) ([1]; Renal CAKI-1 CL9015): 2 | sensitivity classification Low(1)/Medium(2)/High(3) ([1]; Renal RXF-393 CL9016): 2 | sensitivity classification Low(1)/Medium(2)/High(3) ([1]; Renal SN12C CL9008): 2 | sensitivity classification Low(1)/Medium(2)/High(3) ([1]; Renal TK10 CL9024): 2 | sensitivity classification Low(1)/Medium(2)/High(3) ([1]; Renal UO-31 CL9004): 1 | −Log (GI50) ([2]; Melanoma SK-MEL-2 CL10005): 6.6 | −Log (GI50) ([2]; Melanoma SK-MEL-28 CL10008): 6.5 | −Log (GI50) ([2]; NSCLC NCI-H226 CL1013): 7.2

CC(=O)O[C@@]12CO[C@@H]1C[C@H](O)[C@@]1(C)C(=O)[C@H](O)C3=C(C)[C@@H](OC(=O)[C@H](O)[C@@H](NC(=O)OC(C)(C)C)c4ccccc4)C[C@@](O)([C@@H](OC(=O)c4ccccc4)[C@H]21)C3(C)C [Taxotere, docetaxel]
anti-tumor activity (tumor): good anti-tumor activity
